From paper PMC7997032, “Organic synthesis and anti-influenza A virus activity of cyclobakuchiols A, B, C, and D” (PLoS ONE, 2021)
“And” between values parts separate entries of the source, which are not always exact repeats. Equal entries are not always repeated.

What was measured:
[1] = tested on: A/PR/8/34 virus; assay: Influenza A viral growth assay (viral titer of culture media); assay type: cell-based, influenza A H1N1 virus; set-up: viral titer of culture media, individual replicate / viral titer of culture media, ave: unit not given here; details: A/PR/8/34 (PR8), 12.5uM; for viral titer of culture media, ave: average of #1-3 exp (n=9); for viral titer of culture media, individual replicate: replicates of #1-3 exp
[2] = tested on: A/WSN/33 virus; assay: as above; assay type: cell-based, influenza A H1N1 virus; details: A/WSN/33 (WSN), 12.5uM; for viral titer of culture media, ave: average of #1-3 exp (n=9); for viral titer of culture media, individual replicate: replicates of #1-3 exp
[3] = tested on: MDCK cells; assay: MTT assay (cytotoxicity against MDCK cells); assay type: cell-based, canine; details: MDCK cells; for MTT, DMSO as 100 (DMSOを 100として), ave / MTT 72h AVE (DMSO = 100): 72h; for MTT, DMSO as 100 (DMSOを 100として), ave: mean of 5 wells (200409 #1 and #3); for MTT 72h AVE (DMSO = 100): summary AVE; for MTT 24h, AVE (DMSO as 100) / MTT 24h, 570-650nm, DMSO as 100, ave: mean of 5 wells from 3 experiments; for MTT 24h, AVE (DMSO as 100): relative to DMSO = 100; for MTT 24h, 570-650nm, DMSO as 100, single replicate: individual wells (200331; 200403 #2 1,2; 200403 #3 1,2); for 570-650nm (MTT absorbance, single wells) / 570-650nm ave (mean MTT absorbance of 5 wells) / MTT absorbance with DMSO as 100 (DMSOを 100として), single wells: MTT 72h; for 570-650nm (MTT absorbance, single wells): experiments #1-#3, duplicate wells; for MTT absorbance with DMSO as 100 (DMSOを 100として), single wells: relative to mean of DMSO
Method: 1–5 (0.8–100 μM) were prepared in DMSO (100 μM, 1%; 50 μM, 0.5%; 25 μM, 0.25%; 12.5 μM, 0.125%; 6.3 μM, 0.063%; 3.1 μM, 0.031%; 1.6 μM, 0.016%; 0.8 μM, 0.008%) and mixed with infection medium (DMEM supplemented with 1% bovine serum albumin (BSA; Wako), P/S and 4 mM L-glutamine). The resulting mixture was added to the cells and incubated for 24 or 72 h at 37°C in the presence of 5% CO2. After incubation, cell viability was determined using an MTT cell count kit (Nacalai Tesque) according to the manufacturer’s instructions, as previously described.

With `C=C[C@]1(C)CC[C@H](C(=C)C)[C@@H](c2ccc(O)cc2)C1` [(1R,3R,4R)-cyclobakuchiol A] the “viral titer of culture media, ave” value ([1]; 12h) was 31111.1, the “viral titer of culture media, individual replicate” value (shortened to “viral titer … individual replicate”) ([1]; 12h) was 90000 and 60000 and 30000 (2×) and 10000 (3×) and 20000 (2×) and the “viral titer of culture media, ave” value ([1]; 24h) was 25555.6. The “viral titer … individual replicate” value ([1]; 24h) was 40000 and 30000 (3×) and 10000 (3×) and 50000 and 20000, the “viral titer of culture media, ave” value ([1]; 48h) was 28888.9 and the “viral titer … individual replicate” value ([1]; 48h) was 50000 (2×) and 30000 (2×) and 10000 (2×) and 20000 (2×) and 40000. For the same compound, the “viral titer of culture media, ave” value ([1]; 72h) was 20000, the “viral titer … individual replicate” value ([1]; 72h) was 10000 (6×) and 50000 and 30000 and 40000 and the “viral titer of culture media, ave” value ([2]; 12h) was 10300. The “viral titer … individual replicate” value ([2]; 12h) was 300 and 1400 and 1000 and 40000 and 10000 (5×), the “viral titer of culture media, ave” value ([2]; 24h) was 22944444 and the “viral titer … individual replicate” value ([2]; 24h) was 2600000 and 3900000 and 1000000 and 60000000 and 10000000 and 9000000 and 20000000 and 30000000 and 70000000. For the same compound, the “viral titer of culture media, ave” value ([2]; 48h) was 177111111, the “viral titer … individual replicate” value ([2]; 48h) was 50000000 and 54000000 and 10000000 and 210000000 (2×) and 230000000 and 190000000 and 380000000 and 260000000 and the “viral titer of culture media, ave” value ([2]; 72h) was 106555556. The “viral titer … individual replicate” value ([2]; 72h) was 10000000 (2×) and 7000000 and 200000000 and 150000000 (2×) and 60000000 and 330000000 and 42000000.
With `C=C[C@]1(C)CC[C@H](C(C)(C)O)[C@@H](c2ccc(O)cc2)C1` [(1R,3R,4R)-cyclobakuchiol C] the “viral titer of culture media, ave” value ([1]; 12h) was 33333.3, the “viral titer … individual replicate” value ([1]; 12h) was 40000 and 60000 (2×) and 30000 (2×) and 10000 (3×) and 50000 and the “viral titer of culture media, ave” value ([1]; 24h) was 52222.2. The “viral titer … individual replicate” value ([1]; 24h) was 190000 and 20000 and 90000 and 10000 (3×) and 70000 and 40000 and 30000, the “viral titer of culture media, ave” value ([1]; 48h) was 37777.8 and the “viral titer … individual replicate” value ([1]; 48h) was 50000 (2×) and 20000 and 80000 and 10000 (3×) and 40000 and 70000. For the same compound, the “viral titer of culture media, ave” value ([1]; 72h) was 43333.3, the “viral titer … individual replicate” value ([1]; 72h) was 40000 and 20000 (2×) and 90000 and 10000 (2×) and 50000 and 70000 and 80000 and the “viral titer of culture media, ave” value ([2]; 12h) was 8288.89. The “viral titer … individual replicate” value ([2]; 12h) was 3000 and 1000 and 600 and 10000 (5×) and 20000, the “viral titer of culture media, ave” value ([2]; 24h) was 21277778 and the “viral titer … individual replicate” value ([2]; 24h) was 1600000 and 1000000 and 900000 and 30000000 (2×) and 21000000 and 9000000 and 70000000 and 28000000. The “viral titer of culture media, ave” value ([2]; 48h) was 246888889, the “viral titer … individual replicate” value ([2]; 48h) was 100000000 and 150000000 and 62000000 and 140000000 and 350000000 (2×) and 410000000 and 280000000 and 380000000 and the “viral titer of culture media, ave” value ([2]; 72h) was 155211111. The “viral titer … individual replicate” value ([2]; 72h) was 10000000 and 20000000 and 6900000 and 130000000 and 170000000 and 230000000 (2×) and 300000000 (2×).
With `C=C[C@]1(C)CC[C@@H](C(C)(C)O)[C@H](c2ccc(O)cc2)C1` [Cyclo. D] the “MTT, DMSO as 100 (DMSOを 100として), ave” value ([3]; 0.78uM) was 98.8071, the “MTT, DMSO as 100 (DMSOを 100として), ave” value ([3]; 1.56uM) was 117.006 and the “MTT, DMSO as 100 (DMSOを 100として), ave” value ([3]; 3.125uM) was 147.657. The “MTT 72h AVE (DMSO = 100)” value ([3]; 6.25 (uM)) was 128.371, the “MTT 72h AVE (DMSO = 100)” value ([3]; 12.5 (uM)) was 127.934 and the “MTT 72h AVE (DMSO = 100)” value ([3]; 25 (uM)) was 145.717. The “MTT 72h AVE (DMSO = 100)” value ([3]; 50 (uM)) was 126.261, the “MTT 72h AVE (DMSO = 100)” value ([3]; 100 (uM)) was 126.655 and the “MTT 24h, AVE (DMSO as 100)” value ([3]; 0.78 uM) was 97.8994. For the same compound, the “MTT 24h, AVE (DMSO as 100)” value ([3]; 1.56 uM) was 96.8321, the “MTT 24h, 570-650nm, DMSO as 100, single replicate” value (shortened to “MTT 24h … single replicate”) ([3]; 3.125uM) was 84.6917 and 82.6734 and 92.4491 and 113.857 and 84.268 and the “MTT 24h, 570-650nm, DMSO as 100, ave” value ([3]; 3.125uM) was 91.5878. The “MTT 24h … single replicate” value ([3]; 6.25uM) was 85.6335 and 89.7131 and 106.9 and 111.896 and 88.988, the “MTT 24h, 570-650nm, DMSO as 100, ave” value ([3]; 6.25uM) was 96.6263 and the “MTT 24h … single replicate” value ([3]; 12.5uM) was 81.4488 and 91.9219 and 102.896 and 113.782 and 96.5227. For the same compound, the “MTT 24h, 570-650nm, DMSO as 100, ave” value ([3]; 12.5uM) was 97.3142, the “MTT 24h … single replicate” value ([3]; 25uM) was 77.2963 and 96.4082 and 113.294 and 115.224 and 87.3126 and the “MTT 24h, 570-650nm, DMSO as 100, ave” value ([3]; 25uM) was 97.9071. The “MTT 24h … single replicate” value ([3]; 50uM) was 91.2134 and 100.963 and 94.7794 and 115.361 and 101.24, the “MTT 24h, 570-650nm, DMSO as 100, ave” value ([3]; 50uM) was 100.712 and the “MTT 24h … single replicate” value ([3]; 100uM) was 94.6456 and 103.228 and 107.83 and 131.616 and 116.582. The “MTT 24h, 570-650nm, DMSO as 100, ave” value ([3]; 100uM) was 110.78, the “570-650nm (MTT absorbance, single wells)” value ([3]; 0.78uM) was 0.4378 and 0.7486 and 0.8741 and 0.5119 and 0.7887 and 0.8621 and the “570-650nm (MTT absorbance, single wells)” value ([3]; 3.13uM (3.125uM in summary block)) was 0.9735 and 1.011 and 0.8858 and 1.0444 and 0.9175 and 1.1144. For the same compound, the “570-650nm ave (mean MTT absorbance of 5 wells)” value (from here on “570-650nm ave”) ([3]; 6.25uM) was 0.8781, the “MTT absorbance with DMSO as 100 (DMSOを 100として), single wells” value (“MTT absorbance with DMSO” below) ([3]; 6.25uM) was 79.8684 and 128.626 and 158.904 and 136.433 and 138.026 and the “570-650nm ave” value ([3]; 12.5uM) was 1.0183. For the same compound, the “570-650nm (MTT absorbance, single wells)” value ([3]; 12.5uM) was 0.9745 and 1.0068 and 0.9175 and 1.0063 and 1.0002 and 1.1607, the “MTT absorbance with DMSO” value ([3]; 12.5uM) was 126.426 and 115.27 and 145.824 and 125.66 and 126.489 and the “570-650nm ave” value ([3]; 25uM) was 1.096. The “570-650nm (MTT absorbance, single wells)” value ([3]; 25uM) was 1.0789 and 1.1027 and 0.9947 and 1.0822 and 1.1213 and 1.1788, the “MTT absorbance with DMSO” value ([3]; 25uM) was 143.89 and 132.256 and 156.734 and 149.089 and 146.616 and the “570-650nm ave” value ([3]; 50uM) was 1.152. The “570-650nm (MTT absorbance, single wells)” value ([3]; 50uM) was 1.148 and 1.1434 and 1.0891 and 1.1437 and 1.0821 and 1.3031, the “MTT absorbance with DMSO” value ([3]; 50uM) was 125.321 and 119.338 and 142.787 and 118.571 and 125.288 and the “570-650nm ave” value ([3]; 100uM) was 1.192. The “570-650nm (MTT absorbance, single wells)” value ([3]; 100uM) was 1.3579 and 1.2781 and 1.2394 and 0.9368 and 1.1592 and 1.3488 and the “MTT absorbance with DMSO” value ([3]; 100uM) was 99.5008 and 131.641 and 143.261 and 123.123 and 135.751.
